Reference: patent US20260345654A1, “2,8-DIHYDROXYQUINOLINE GLUCURONIDE DERIVATIVES WITH ENHANCED PROPERTIES FOR USE AS ANTICANCER, ANTIVIRAL, ANTIMICROBIAL, AND OTHER THERAPEUTIC APPLICATIONS” (priority 2023, published 2026)
Entries after “also recorded” stand apart in the source; their conditions may differ. Read-outs that look alike come from different tables or passages of the source.

Columns and labels:
[1] = test system: BT-549 cells; assay: In vitro anti-proliferation (CellTiter-Glo, 72 hr), BT-549; assay type: cell-based
Method: (§1) Commercially available 8HQ and freshly synthesized G2-8HQ were prepared for in vitro anti-proliferative studies against the following cell lines with and without the presence of 10 μM Cu(+2): (1) A549: […]; (2) BT-549: epithelial cells from ductal tumor; (3) DU-145: human prostate cancer; (4) PANC-1: pancreatic cancer; (5) SU.86.86: a new adoptive pancreatic cell for immunotherapy studies; (6) RL: non-Hodgkin's lymphoma; (7) LnCAP, Prostate cancer cell line; (8) A431, a squamous cell carcinoma line; and (9) UACC-62 a malignant melanoma cell line.
(§2) With regard to the study protocol used, the objective was to conduct a study of the cytotoxicity of W1469 against several cancer cell lines. In the study protocol, preparations for the A549 (Lung) cell line screen are given as an example. The following materials were used: (1) FBS (2) RPMI-1640 medium supplemented with 10% FBS:’ and (3) A549 Cells. The four samples tested are referred to as Items 1-4 below and were placed at 4 °C upon arrival. These four samples were as follows: • Item 1: Tube A (W1469) (500 uM when FBS added) • Item 2: Tube B (W1469g) (1000 uM when FBS added) • Item 3: Tube C (W1469) • Item 4: Tube D (W1469g)
(§3) Add 50 μL of above 2× stocks to appropriate wells to expose appropriate cells to the final dilutions of samples. Add 50 μL media to media and cell control wells and 50 μL media mix to vehicle control wells. Cells are exposed for 72 hr. Following a 72 hr exposure to Sample, perform a CTG assay on all remaining plates.
(§4) At the end of the 72 hr exposure period, remove plates for CellTiter-Glo assay from 37 °C, 5% CO2 incubator and place on the bench at room temperature for 30 mins. Add 100 μL CellTiter-Glo reagent, mix for 2 mins, followed by a further 10 min incubation at room temperature. Record luminescence. Tables showing the resulting plate layouts are included below/

[2] = test system: DU-145 cells; assay: In vitro anti-proliferation (CellTiter-Glo, 72 hr), DU-145; assay type: cell-based, human
Method: as §1, §2, §3, §4

[3] = test system: PANC-1 cells; assay: In vitro anti-proliferation (CellTiter-Glo, 72 hr), PANC-1; assay type: cell-based
Method: as §1, §2, §3, §4

[4] = test system: RL cells; assay: In vitro anti-proliferation (CellTiter-Glo, 72 hr), RL; assay type: cell-based
Method: as §1, §2, §3, §4

[5] = test system: LnCAP cells; assay: In vitro anti-proliferation (CellTiter-Glo, 72 hr), LnCAP; assay type: cell-based
Method: as §1, §2, §3, §4
(§5) The other cancer cell lines tested gave similar results. […] Three additional cell lines were also studied and described more completely in Example 9 provided herein. These cell lines included cytotoxicity testing of WT1469 (G2-8HQ) against LnCAP a prostate cancer, A431 a squamous carcinoma cell line and UACC-62 a malignant melanoma cell line. All were complexed in situ with copper immediately prior to testing. The results from these additional cell lines and incorporated in Table 2 and Example 9.

[6] = test system: UACC-62 cells; assay: In vitro anti-proliferation (CellTiter-Glo, 72 hr), UACC-62; assay type: cell-based
Method: as §1, §2, §3, §4, §5

[7] = test system: squamous cell carcinoma; assay: Case study, topical W1469, squamous cell carcinoma (Individual 4); assay type: in vivo, human
Method: (§6) Topical gel containing 0.5 mg/ml W1469 in proprietary aqueous alcohol gel, applied initially once daily using a suitable topical applicator.
(§7) In general, the Treatment/Patient protocol used for the patient testing was as follows: • 1. Photograph the application site prior to starting the protocol. Note any changes in lesion size, color, etc. of treatment area. • 2. Remove a loaded syringe from the freezer, dry ice or refrigerator and allow to gradually warm to room temperature. • 3. Photograph the syringe each time prior to application. Note the color of the gel contained in the syringe. • 4. Lightly clean the skin surface with alcohol wipe. • 5. […] Let the liquid from the gel absorb into the site without disturbing. Apply once a day at the same time. • 6. Re-cap the syringe and store in the refrigerator until completely used. • 7. Repeat 1-6 each daily during application period. It is noted in this protocol that photographing the syringe used with each application period accomplishes two things.
Physician administered, variable treatment protocol, drug concentrations and vehicle carrier. A person with 2 mm ulcerative lesion (squamous cell carcinoma) to the post-auricular area of left side of the head. The lesion area had been biopsied and treated with cryotherapy one year prior. Lesion area had begun to reappear 3 months prior to this photo. After three days of once daily treatment, the same lesion was already reduced to approximately ½ of original size. […] Note: Subject's initial dosing schedule was once daily. […] Upon next visit (three days after initial dosing) […] dose was doubled while maintaining a once daily schedule. Over the next three days their lesion resolved completely and without any adverse reactions noted.

[8] = test system: ulcerative lesion to mid forehead; assay: Case study, topical W1469, ulcerative lesion (Individual 3); assay type: in vivo, human; conditions: Individual 3, twice daily, after one week
Method: as §6, §7
Physician administered, variable treatment protocol, drug concentrations and vehicle carrier. A person with ulcerative lesion to mid forehead approximately 3 mm×4 mm. […]. Non painful and without exudate. Therapy applied on a twice daily dosing schedule.

[9] = test system: basal cell and squamous cell cancer; assay: Case studies overview, topical W1469; assay type: in vivo, human
Method: as §6, §7
• 1. Toleration/toxicity • 2. Application methodology • 3. Any visual indications of efficacy • 4. Patient feedback Study Duration: Varied case by case. Generally, two weeks to two months

[10] = Solubility
[11] = 1 and 0.5 μM, presence of Cu^+2 ions, wide standard deviation
[12] = +Cu (10 μM), 72 hr, G2-8HQ values based on MW of apo form (337), read-out: IC50
[13] = complexed with Cu, multiplied by 337/776=0.43, column 3 duplicate of column 2, listed as W1469, read-out: IC50 (adjusted to MW of copper complex)
[14] = complexed with Cu in situ, * differences with or without excipient, suboptimal complexing, listed as W1469, read-out: IC50 (adjusted to MW of copper complex)

## O=C(O)[C@H]1O[C@@H](Oc2ccc3cccc(O)c3n2)[C@H](O)[C@@H](O)[C@@H]1O [G2-8HQ, 8-Hydroxy-2-quinolinyl beta-D-glucopyranosiduronic acid]
[1]; [11]
  cytotoxicity: in some percentage of the screens all the cancer cells were killed at these concentrations
[1]; [12]
  IC50: 8.6 µM
[1]; Homo sapiens, BT-549, 72 h, +Cu (10 μM), 72 hr, G2-8HQ values based on MW of apo form (337), read-out: IC50
  IC50: 5.6 µM
[1]; Homo sapiens, BT-549, 72 h, −Cu, 72 hr, read-out: IC50
  IC50: > 500 µM
[1]; Homo sapiens, BT-549, complexed with Cu, multiplied by 337/776=0.43, column 3 duplicate of column 2, read-out: IC50 (adjusted to MW of copper complex)
  IC50: 2.4 µM
[1]; [13]
  IC50: 3.7 µM
[2]; [11]
  cytotoxicity: in some percentage of the screens all the cancer cells were killed at these concentrations
[2]; [12]
  IC50: 8.7 µM
[2]; Homo sapiens, DU-145, 72 h, +Cu (10 μM), 72 hr, G2-8HQ values based on MW of apo form (337), read-out: IC50
  IC50: 7.3 µM
[2]; Homo sapiens, DU-145, 72 h, −Cu, 72 hr, read-out: IC50
  IC50: > 500 µM
[2]; Homo sapiens, DU-145, complexed with Cu, multiplied by 337/776=0.43, column 3 duplicate of column 2, read-out: IC50 (adjusted to MW of copper complex)
  IC50: 3.1 µM
[2]; [13]
  IC50: 3.7 µM
[3]; [11]
  cytotoxicity: at least some of the screens reflected that all the cancer cells were killed at these concentrations; also recorded: in some % of the screens all the cancer cells were killed at these concentrations
[3]; Homo sapiens, PANC-1, 72 h, −Cu, 72 hr
  IC50: > 500 µM
[4]; [11]
  cytotoxicity: in a percentage of cases, all of the cancer cells were killed at concentrations between at 1 and 0.5 μM; also recorded: in some % of the screens all the cancer cells were killed at these concentrations
[4]; [12]
  IC50: 0.47 µM
[4]; Homo sapiens, RL, 72 h, +Cu (10 μM), 72 hr, G2-8HQ values based on MW of apo form (337), read-out: IC50
  IC50: 0.468 µM
[4]; Homo sapiens, RL, 72 h, −Cu, 72 hr, read-out: IC50
  IC50: > 500 µM
[4]; Homo sapiens, RL, complexed with Cu, multiplied by 337/776=0.43, read-out: IC50 (adjusted to MW of copper complex)
  IC50: 0.2 µM
[5]; +Cu, complexed in situ with copper immediately prior to testing, apo MW (337), read-out: IC50
  IC50: 154 µM
[5]; Homo sapiens, LNCaP, +Cu, complexed in situ with copper immediately prior to testing, apo MW (337), read-out: IC50
  IC50: 109 µM
[5]; Homo sapiens, LNCaP, complexed with Cu in situ, * differences with or without excipient, suboptimal complexing, read-out: IC50 (adjusted to MW of copper complex)
  IC50: 46.9 µM
[5]; [14]
  IC50: 66.2 µM
[6]; +Cu, complexed in situ with copper immediately prior to testing, not based on apo MW, read-out: IC50
  IC50: 170 µM
[6]; Homo sapiens, UACC-62, +Cu, complexed in situ with copper immediately prior to testing, not based on apo MW, read-out: IC50
  IC50: 154 µM
[6]; Homo sapiens, UACC-62, complexed with Cu in situ, * differences with or without excipient, suboptimal complexing, read-out: IC50 (adjusted to MW of copper complex)
  IC50: 152 µM
[6]; [14]
  IC50: 167 µM
[7]; Individual 4, after three days of once daily treatment
  lesion size (fraction of original size): approximately ½
[7]; Individual 4, once daily, dose doubled after three days
  adverse reactions: no adverse reactions
[7]; Individual 4, regular treatment for one week
  lesion resolution: complete resolution of the patient's lesion
[8]
  erythema, exudate, or hyperkeratosis: No erythema, exudate, or hyperkeratosis noted
  ulcerative lesion: resolution of ulcerative lesion
[9]; all 4 case studies
  Side Effects: No side effects were noted
  appearance of skin surrounding the cancer lesion(s): Marked improvements in general appearance of skin surrounding the cancer lesion(s)
  cancer lesion size: Progressive reduction of cancer lesion size
  dose dependency: higher concentrations work better
  effect on adjacent tissue: Doesn't inflame or injure adjacent tissue
  pain of treatment and application: not painful
  time to rapid elimination of pain and visible inflammation: 2 to 5 days
[9]; topical gel 0.5 mg/ml, once daily initially
  toxicity: no toxicity was observed
[10]; comparison Table 5
  Solubility of Cu Complex/aqueous: excellent
[10]; water / aqueous
  solubility: highly aqueous soluble
[10]; water or PBS (at neutral pH)
  solubility: highly soluble
